# Reference: US12227488B2, “Small molecule degraders of Helios and methods of use” (DANA-FARBER CANCER INSTITUTE, INC., priority 2018, dated 2025)
# Tests used:
# CRBN and Helios (IKZF2) = target: T1, CRBN and Helios (IKZF2) (Homo sapiens, UniProt Q96SW2+Q9UKS7); assay: TR-FRET dimerization assay (CRBN-IKZF2 ternary complex formation); assay type: binding; settings: n=1
# T1 construct: His (N); Strep (N)
# Outline: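 Compound-induced IKZF2 recruitment to CRBN was read as the 520/490 nm TR-FRET ratio after 15 min at rt. The mix held biotinylated IKZF2, BODIPY-labeled CRBN bound to DDB1 lacking the BPB propeller, tracer Tb-streptavidin and compound titrations; n=1, from ≥3 technical replicates per well.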
# IKZF2 = assay: Cellular degradation assay, eGFP-IKZF2Δ fusion with mCherry reporter in Flp-In 293 cells; assay type: cell-based; settings: 5 h incubation, n=1
# Outline: (§1)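 DC50,5 h derived by variable-slope nonlinear fit of the per-well ratio of GFP-positive to mCherry-positive cells, imaged after 5 h compound exposure at 0.5% DMSO.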
# SALL4 ZNF1-2 = target: T2, SALL4 ZNF1-2 (Homo sapiens, UniProt Q96SW2+Q9UJQ4); assay: Cellular degradation assay, eGFP-SALL4 ZnF1-2 fusion with mCherry reporter in Flp-In 293 cells; assay type: cell-based; settings: 5 h incubation, n=1
# T2 construct: IKZF1Δ, IKZF2Δ, GSPT1 and SALL4 ZnF1-2 were subcloned; expressed in transfected cells; host or cells: Flp-In 293
# T2 sequence (Q9UJQ4 378-438 limits assumed): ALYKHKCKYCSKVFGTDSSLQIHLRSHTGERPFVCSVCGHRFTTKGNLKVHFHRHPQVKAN
# T2 sequence (Q96SW2 whole entry, the tested form may be a part): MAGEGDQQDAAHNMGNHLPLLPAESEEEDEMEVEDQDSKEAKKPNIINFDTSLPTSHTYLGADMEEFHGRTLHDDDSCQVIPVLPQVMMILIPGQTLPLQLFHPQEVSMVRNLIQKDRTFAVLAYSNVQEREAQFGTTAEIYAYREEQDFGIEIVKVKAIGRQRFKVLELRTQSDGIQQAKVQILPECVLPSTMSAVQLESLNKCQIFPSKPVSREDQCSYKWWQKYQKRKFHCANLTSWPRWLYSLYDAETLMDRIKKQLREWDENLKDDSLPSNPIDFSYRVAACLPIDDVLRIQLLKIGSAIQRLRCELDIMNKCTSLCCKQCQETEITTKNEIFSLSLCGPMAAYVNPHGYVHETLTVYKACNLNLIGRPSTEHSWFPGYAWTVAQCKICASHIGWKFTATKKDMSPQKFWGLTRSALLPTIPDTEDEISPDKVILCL
# T2 sequence (Q16531 whole entry partner, the tested form may be a part): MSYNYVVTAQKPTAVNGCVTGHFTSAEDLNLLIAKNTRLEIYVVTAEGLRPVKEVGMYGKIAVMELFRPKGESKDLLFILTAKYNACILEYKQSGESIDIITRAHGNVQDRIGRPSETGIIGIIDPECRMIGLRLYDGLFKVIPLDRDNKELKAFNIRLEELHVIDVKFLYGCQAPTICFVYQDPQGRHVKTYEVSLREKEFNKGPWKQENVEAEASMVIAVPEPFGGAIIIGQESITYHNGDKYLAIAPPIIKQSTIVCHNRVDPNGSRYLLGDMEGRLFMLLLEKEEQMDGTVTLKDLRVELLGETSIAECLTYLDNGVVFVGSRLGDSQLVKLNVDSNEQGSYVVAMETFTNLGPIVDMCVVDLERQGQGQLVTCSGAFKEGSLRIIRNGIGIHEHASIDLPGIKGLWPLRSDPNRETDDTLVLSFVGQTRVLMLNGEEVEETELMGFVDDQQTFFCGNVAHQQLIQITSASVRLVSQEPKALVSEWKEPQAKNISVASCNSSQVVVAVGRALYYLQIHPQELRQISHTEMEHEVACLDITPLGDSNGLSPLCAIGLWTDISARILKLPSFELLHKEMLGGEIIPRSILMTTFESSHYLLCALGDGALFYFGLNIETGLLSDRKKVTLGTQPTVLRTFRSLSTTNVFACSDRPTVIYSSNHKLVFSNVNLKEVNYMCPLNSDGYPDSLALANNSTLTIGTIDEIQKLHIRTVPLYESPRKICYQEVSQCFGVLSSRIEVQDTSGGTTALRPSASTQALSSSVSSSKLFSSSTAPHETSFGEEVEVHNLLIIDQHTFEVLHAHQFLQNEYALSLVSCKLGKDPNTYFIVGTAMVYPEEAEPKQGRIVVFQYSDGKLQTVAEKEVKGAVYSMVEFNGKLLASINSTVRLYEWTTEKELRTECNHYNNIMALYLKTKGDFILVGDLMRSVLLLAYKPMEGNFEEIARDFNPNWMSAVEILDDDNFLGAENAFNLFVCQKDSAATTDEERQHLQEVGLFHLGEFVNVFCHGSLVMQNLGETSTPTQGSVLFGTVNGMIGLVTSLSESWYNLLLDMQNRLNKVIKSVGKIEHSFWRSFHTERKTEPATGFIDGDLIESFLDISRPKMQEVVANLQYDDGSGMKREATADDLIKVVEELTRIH
# Outline: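 Read-out is the ratio of GFP-positive to mCherry-positive cells per well, imaged at 488 and 561 nm right after 5-hour compound exposure (normalised to 0.5% DMSO). Cells: Flp-In 293 stably carrying eGFP-P2A-mCherry construct fused to SALL4 ZnF1-2.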
# IKZF1 = target: T3, IKZF1 (Homo sapiens, UniProt Q13422); assay: Cellular degradation assay, eGFP-IKZF1Δ fusion with mCherry reporter in Flp-In 293 cells; assay type: cell-based; settings: 5 h incubation, n=1
# T3 construct: expressed in transfected cells; host or cells: Flp-In 293
# T3 sequence (Q13422 83-213 isoform Q13422-7 limits assumed): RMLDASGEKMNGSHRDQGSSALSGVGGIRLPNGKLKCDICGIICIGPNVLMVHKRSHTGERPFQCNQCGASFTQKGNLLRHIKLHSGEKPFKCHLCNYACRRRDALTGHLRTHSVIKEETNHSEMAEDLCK
# T3 sequence (Q96SW2 whole entry partner, the tested form may be a part): as the sequence (Q96SW2 whole entry, the tested form may be a part) above
# T3 sequence (Q16531 2-1140 partner limits assumed): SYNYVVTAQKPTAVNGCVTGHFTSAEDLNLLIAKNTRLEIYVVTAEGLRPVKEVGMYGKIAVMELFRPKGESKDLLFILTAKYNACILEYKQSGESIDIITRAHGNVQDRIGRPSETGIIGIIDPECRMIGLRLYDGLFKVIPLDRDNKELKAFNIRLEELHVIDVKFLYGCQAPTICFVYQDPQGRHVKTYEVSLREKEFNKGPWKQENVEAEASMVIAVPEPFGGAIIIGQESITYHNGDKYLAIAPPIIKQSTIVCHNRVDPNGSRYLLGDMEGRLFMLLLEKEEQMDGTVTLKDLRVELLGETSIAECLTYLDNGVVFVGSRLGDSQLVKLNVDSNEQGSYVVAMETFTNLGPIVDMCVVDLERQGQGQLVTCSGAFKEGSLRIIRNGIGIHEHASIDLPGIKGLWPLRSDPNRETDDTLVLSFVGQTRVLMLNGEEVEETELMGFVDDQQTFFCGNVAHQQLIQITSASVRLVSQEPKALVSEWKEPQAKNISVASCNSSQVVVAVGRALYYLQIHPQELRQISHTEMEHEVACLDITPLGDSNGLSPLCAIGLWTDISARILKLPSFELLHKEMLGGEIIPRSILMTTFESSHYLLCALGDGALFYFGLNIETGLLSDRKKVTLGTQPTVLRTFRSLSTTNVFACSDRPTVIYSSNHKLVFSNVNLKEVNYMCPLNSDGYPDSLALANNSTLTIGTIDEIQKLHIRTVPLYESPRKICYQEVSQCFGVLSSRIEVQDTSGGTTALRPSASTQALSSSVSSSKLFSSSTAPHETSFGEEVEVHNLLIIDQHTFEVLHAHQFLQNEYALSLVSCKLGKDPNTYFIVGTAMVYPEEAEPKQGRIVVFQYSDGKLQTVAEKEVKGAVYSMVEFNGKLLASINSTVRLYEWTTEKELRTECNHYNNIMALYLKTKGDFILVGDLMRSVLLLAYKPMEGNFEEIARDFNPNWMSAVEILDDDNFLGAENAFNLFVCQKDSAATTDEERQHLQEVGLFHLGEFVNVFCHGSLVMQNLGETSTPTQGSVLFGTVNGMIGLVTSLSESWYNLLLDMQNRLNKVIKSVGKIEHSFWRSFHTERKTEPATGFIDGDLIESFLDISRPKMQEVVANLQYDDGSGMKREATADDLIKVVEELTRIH
# Outline: as §1
# GSPT1 = GSPT1 (Homo sapiens, UniProt P15170+Q96SW2); assay: Cellular degradation assay, eGFP-GSPT1 fusion with mCherry reporter in Flp-In 293 cells; assay type: cell-based; parameters: expressed in transfected cells; host or cells: Flp-In 293; settings: 5 h incubation, n=1
# Chain of GSPT1 (P15170 whole entry, the tested form may be a part): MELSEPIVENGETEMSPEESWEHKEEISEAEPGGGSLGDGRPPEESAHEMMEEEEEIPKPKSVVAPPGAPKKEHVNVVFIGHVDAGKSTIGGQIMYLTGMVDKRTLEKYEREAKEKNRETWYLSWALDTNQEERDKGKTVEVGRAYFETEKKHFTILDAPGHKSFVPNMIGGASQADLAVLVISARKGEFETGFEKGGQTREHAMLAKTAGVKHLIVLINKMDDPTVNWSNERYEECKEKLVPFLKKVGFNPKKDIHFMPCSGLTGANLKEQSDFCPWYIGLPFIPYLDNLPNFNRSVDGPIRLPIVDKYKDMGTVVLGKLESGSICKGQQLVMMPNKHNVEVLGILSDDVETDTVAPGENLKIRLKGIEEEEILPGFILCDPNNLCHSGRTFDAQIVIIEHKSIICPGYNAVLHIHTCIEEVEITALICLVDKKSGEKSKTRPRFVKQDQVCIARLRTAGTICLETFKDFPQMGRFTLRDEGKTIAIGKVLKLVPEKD
# Chain of GSPT1 (Q96SW2 whole entry, the tested form may be a part): as the sequence (Q96SW2 whole entry, the tested form may be a part) above
# Chain of GSPT1 (Q16531 whole entry partner, the tested form may be a part): as the sequence (Q16531 whole entry partner, the tested form may be a part) above
# Outline: as §1
# [1] = compound concentration 6.6667E−05
# [2] = compound concentration 6.6667E−06
# [3] = compound concentration 6.6667E−07 (667 nM)
# [4] = compound concentration 2.00E−05
# [5] = compound concentration 2.00E−06
# [6] = compound concentration 2.00E−07
# T1 sequence (Q96SW2 whole entry): as the sequence (Q96SW2 whole entry, the tested form may be a part) above
# T1 sequence (Q9UKS7 whole entry): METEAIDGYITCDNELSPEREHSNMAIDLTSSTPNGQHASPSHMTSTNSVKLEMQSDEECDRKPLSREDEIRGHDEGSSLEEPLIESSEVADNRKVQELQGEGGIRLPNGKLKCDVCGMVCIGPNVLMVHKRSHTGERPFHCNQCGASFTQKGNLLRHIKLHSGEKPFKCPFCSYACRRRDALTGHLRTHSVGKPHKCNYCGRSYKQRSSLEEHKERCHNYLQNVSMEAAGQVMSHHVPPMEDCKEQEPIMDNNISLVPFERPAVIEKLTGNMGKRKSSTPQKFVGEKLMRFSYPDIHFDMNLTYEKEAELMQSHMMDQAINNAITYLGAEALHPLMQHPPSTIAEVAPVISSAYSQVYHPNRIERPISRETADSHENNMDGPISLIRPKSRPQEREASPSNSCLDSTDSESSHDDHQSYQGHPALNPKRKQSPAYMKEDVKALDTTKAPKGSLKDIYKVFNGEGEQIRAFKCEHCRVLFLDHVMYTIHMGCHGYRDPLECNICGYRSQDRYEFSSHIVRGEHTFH
SMILES,TR-FRET-IKZF2 (Normalized to CC-885) (CRBN and Helios (IKZF2); [1]),TR-FRET-IKZF2 (Normalized to CC-885) (CRBN and Helios (IKZF2); [2]),TR-FRET-IKZF2 (Normalized to CC-885) (CRBN and Helios (IKZF2); [3]),IKZF2 GFP/RFP Relative Abundance (IKZF2; [4]),IKZF2 GFP/RFP Relative Abundance (IKZF2; [5]),IKZF2 GFP/RFP Relative Abundance (IKZF2; [6]),SALL4 ZNF1-2 GFP/RFP Relative Abundance (SALL4 ZNF1-2; [4]),SALL4 ZNF1-2 GFP/RFP Relative Abundance (SALL4 ZNF1-2; [5]),SALL4 ZNF1-2 GFP/RFP Relative Abundance (SALL4 ZNF1-2; [6]),IKZF1 GFP/RFP Relative Abundance (IKZF1; [4]),IKZF1 GFP/RFP Relative Abundance (IKZF1; [5]),IKZF1 GFP/RFP Relative Abundance (IKZF1; [6]),GSPT1 GFP/RFP Relative Abundance (GSPT1; [4]),GSPT1 GFP/RFP Relative Abundance (GSPT1; [5]),GSPT1 GFP/RFP Relative Abundance (GSPT1; [6])
"CN(C)C(=O)Cc1cccc(NC2=CC(=O)N(C3CCC(=O)NC3=O)C2=O)c1 (stereo not drawn) [Compound 35, 2-(3-((1-(2,6-dioxopiperidin-3-yl)-2,5-dioxo-2,5-dihydro-1H-pyrrol-3-yl)amino)phenyl)-N,N-dimethylacetamide]",0.520,0.447,0.402,0.667,0.709,0.806,0.928,0.903,0.888,0.154,0.181,0.182,0.975,1.074,0.938
"CN(C)C(=O)Cc1ccc(NC2=CC(=O)N(C3CCC(=O)NC3=O)C2=O)cc1 (stereo not drawn) [Compound 36, 2-(4-((1-(2,6-dioxopiperidin-3-yl)-2,5-dioxo-2,5-dihydro-1H-pyrrol-3-yl)amino)phenyl)-N,N-dimethylacetamide]",0.183,0.148,0.115,0.943,1.027,1.049,1.000,1.033,0.974,0.687,0.796,0.860,1.112,1.009,1.006
"O=C1CCC(N2C(=O)C=C(Nc3ccc4cc[nH]c4c3)C2=O)C(=O)N1 (stereo not drawn) [Compound 37, 3-(3-((1H-indol-6-yl)amino)-2,5-dioxo-2,5-dihydro-1H-pyrrol-1-yl)piperidine-2,6-dione]",0.620,0.422,0.355,0.938,1.004,0.988,0.939,0.865,0.891,0.315,0.349,0.344,0.787,1.111,1.010
"O=C1CCC(N2C(=O)C=C(Nc3ccc(-c4ccccc4)cc3)C2=O)C(=O)N1 (stereo not drawn) [Compound 38, 3-(3-([1,1′-biphenyl]-4-ylamino)-2,5-dioxo-2,5-dihydro-1H-pyrrol-1-yl)piperidine-2,6-dione]",0.328,0.266,0.210,0.885,1.002,0.977,1.005,0.887,0.742,0.728,0.663,0.621,1.174,1.216,0.870
"O=C1CCC(N2C(=O)C=C(Nc3ccc(Cc4ccccc4)cc3)C2=O)C(=O)N1 (stereo not drawn) [Compound 39, 3-(3-((4-benzylphenyl)amino)-2,5-dioxo-2,5-dihydro-1H-pyrrol-1-yl)piperidine-2,6-dione]",0.271,0.230,0.174,1.070,1.008,1.047,1.110,1.006,1.043,0.705,0.691,0.677,0.743,0.813,0.830
"Cc1ccc(NC(=O)NCCNC2=CC(=O)N(C3CCC(=O)NC3=O)C2=O)cc1Cl (stereo not drawn) [Compound 41, 1-(3-chloro-4-methylphenyl)-3-(2-((1-(2,6-dioxopiperidin-3-yl)-2,5-dioxo-2,5-dihydro-1H-pyrrol-3-yl)amino)ethyl)urea]",0.170,0.126,0.104,0.969,1.027,1.040,1.020,0.994,1.004,0.638,0.909,1.003,0.038,0.062,0.077
"Cc1ccc(NC(=O)Nc2ccc(NC3=CC(=O)N(C4CCC(=O)NC4=O)C3=O)cc2)cc1Cl (stereo not drawn) [Compound 42, 1-(3-chloro-4-methylphenyl)-3-(4-((1-(2,6-dioxopiperidin-3-yl)-2,5-dioxo-2,5-dihydro-1H-pyrrol-3-yl)amino)phenyl)urea]",0.407,0.318,0.209,1.056,1.050,0.999,1.122,0.997,1.018,0.775,0.536,0.577,0.118,0.182,0.215
"Cc1ccc(NC(=O)Nc2cccc(NC3=CC(=O)N(C4CCC(=O)NC4=O)C3=O)c2)cc1Cl (stereo not drawn) [Compound 43, 1-(3-chloro-4-methylphenyl)-3-(3-((1-(2,6-dioxopiperidin-3-yl)-2,5-dioxo-2,5-dihydro-1H-pyrrol-3-yl)amino)phenyl)urea]",0.443,0.353,0.278,1.054,1.007,0.980,1.072,0.897,0.888,0.996,0.240,0.301,0.083,0.072,0.087
"Cc1ccc(NC(=O)NCc2ccccc2NC2=CC(=O)N(C3CCC(=O)NC3=O)C2=O)cc1Cl (stereo not drawn) [Compound 45, 1-(3-chloro-4-methylphenyl)-3-(2-((1-(2,6-dioxopiperidin-3-yl)-2,5-dioxo-2,5-dihydro-1H-pyrrol-3-yl)amino)benzyl)urea]",0.079,0.059,0.051,1.015,1.022,1.022,1.059,0.993,0.948,0.957,1.027,1.060,0.476,0.921,1.093
"Cc1ccc(NC(=O)NCc2ccc(NC3=CC(=O)N(C4CCC(=O)NC4=O)C3=O)cc2)cc1Cl (stereo not drawn) [Compound 46, 1-(3-chloro-4-methylphenyl)-3-(4-((1-(2,6-dioxopiperidin-3-yl)-2,5-dioxo-2,5-dihydro-1H-pyrrol-3-yl)amino)benzyl)urea]",0.787,0.828,0.701,0.242,0.361,0.510,0.950,0.906,0.854,0.045,0.087,0.112,0.048,0.089,0.076
